Each structure is given as a SMILES string. Where two headings read alike, the source gives them in different places.

The target in test [1] is DHFR-TS (Trypanosoma brucei brucei, UniProt Q27783). Description: Individual bead pull down with competing free ligand. The following applies: competing free ligand 100 μM; bead = immobilized compound of the row; T. brucei lysate; read-out: % Inhibition of protein binding to bead, DHFR-TS, T. brucei. From the text:
(§1) Antifolate compounds were immobilized onto NHS-activated sepharose beads/reverse sepharose beads through amide coupling via either an amino or carboxyl group (see Figure 3). The reaction was monitored by observing the disappearance of test compound by LCMS, after which the unreacted coupling sites were capped with NHS-acetate or aminoethanol.
(§2) Folate metabolizing enzymes are not highly abundant proteins,[19],[20] potentially making their identification by MS difficult. Beads will not only pull down the low abundant high affinity binders but also attract highly abundant, low affinity binders or so-called nonspecific binders. Sometimes, the nonspecific high abundant proteins can mask true binders. The target identification approach used in this study overcomes this issue by performing competition studies. Various concentrations of the free unmodified inhibitor (test compound) were preincubated with the lysate, prior to addition of the beads derivatized with immobilized compounds. Following washing of the bound proteins from the beads and tryptic digest, the peptides were labeled using the TMTs and then pooled. Differences in peptide abundance were analyzed by fragmentation of the isotope-coded isobaric tags in the MS/MS spectra (Figure 5).[9],[11],[12],[21] While the competition experiments with test compound confirm specific binding, it is also possible that some proteins will have a stronger binding interaction with the derivatized beads than the competing test compound, due to subtle differences in the interactions between the immobilized compound and the test compound with the target protein.

In test [2] the target is PTR-1 (Trypanosoma brucei brucei, UniProt O76290). The description is as above. The following applies: competing free ligand 100 μM; bead = immobilized compound of the row; T. brucei lysate; read-out: % Inhibition of protein binding to bead, PTR-1, T. brucei.
Chain of PTR-1 (O76290 entry or part of it): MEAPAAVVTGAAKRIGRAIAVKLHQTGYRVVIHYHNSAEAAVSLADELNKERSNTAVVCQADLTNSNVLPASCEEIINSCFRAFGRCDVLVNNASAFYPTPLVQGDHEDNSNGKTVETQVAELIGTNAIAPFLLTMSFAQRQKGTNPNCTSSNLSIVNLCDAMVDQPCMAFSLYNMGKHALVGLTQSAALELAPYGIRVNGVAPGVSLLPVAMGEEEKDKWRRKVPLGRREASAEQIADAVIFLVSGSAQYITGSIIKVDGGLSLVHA
Excerpt: as §1, §2

In test [3] the target is GLYCERALDEHYDE 3-PHOSPHATE DEHYDROGENASE, GLYCOSOM (TB427.06.4300) (Trypanosoma brucei brucei, UniProt P22512). Description: Multitargeted bead mixture competition. The class given is binding, T. brucei. The following applies: multitargeted bead mixture; free ligand 100 μM; T. brucei lysate; TB427.06.4300 GAPDH.
Chain of UniProt P22512 (P22512 whole entry): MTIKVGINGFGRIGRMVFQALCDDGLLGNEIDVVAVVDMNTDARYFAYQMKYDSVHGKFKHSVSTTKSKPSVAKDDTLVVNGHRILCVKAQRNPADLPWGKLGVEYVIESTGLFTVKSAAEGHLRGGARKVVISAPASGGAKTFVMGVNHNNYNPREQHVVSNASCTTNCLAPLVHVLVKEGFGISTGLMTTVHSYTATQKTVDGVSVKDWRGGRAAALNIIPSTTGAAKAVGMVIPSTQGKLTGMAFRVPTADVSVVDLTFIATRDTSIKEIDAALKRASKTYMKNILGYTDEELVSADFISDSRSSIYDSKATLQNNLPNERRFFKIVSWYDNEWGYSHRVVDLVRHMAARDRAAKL
Test [4] has as its system PROTEIN KINASE, PUTATIVE (Tb427.03.1570). Description: Multitargeted bead mixture competition. The class given is binding. The following applies: free ligand 100 μM, T. brucei lysate.
Test [5] has as its system CHOLINE KINASE (TB427TMP.18.0017). Description: Multitargeted bead mixture competition. The following applies: multitargeted bead mixture; free ligand 100 μM; T. brucei lysate; TB427TMP.18.0017 CHOLINE KINASE. The class given is binding, T. brucei.
In test [6] the target is DIHYDROFOLATE REDUCTASE-T[…] (TB427.07.5480) (Trypanosoma brucei brucei, UniProt Q27783). Description: Multitargeted bead mixture competition. The class given is binding. The following applies: multitargeted bead mixture; free ligand 100 μM; T. brucei lysate; TB427.07.5480 DHFR-TS.
Chain of UniProt Q27783 (Q27783 whole entry): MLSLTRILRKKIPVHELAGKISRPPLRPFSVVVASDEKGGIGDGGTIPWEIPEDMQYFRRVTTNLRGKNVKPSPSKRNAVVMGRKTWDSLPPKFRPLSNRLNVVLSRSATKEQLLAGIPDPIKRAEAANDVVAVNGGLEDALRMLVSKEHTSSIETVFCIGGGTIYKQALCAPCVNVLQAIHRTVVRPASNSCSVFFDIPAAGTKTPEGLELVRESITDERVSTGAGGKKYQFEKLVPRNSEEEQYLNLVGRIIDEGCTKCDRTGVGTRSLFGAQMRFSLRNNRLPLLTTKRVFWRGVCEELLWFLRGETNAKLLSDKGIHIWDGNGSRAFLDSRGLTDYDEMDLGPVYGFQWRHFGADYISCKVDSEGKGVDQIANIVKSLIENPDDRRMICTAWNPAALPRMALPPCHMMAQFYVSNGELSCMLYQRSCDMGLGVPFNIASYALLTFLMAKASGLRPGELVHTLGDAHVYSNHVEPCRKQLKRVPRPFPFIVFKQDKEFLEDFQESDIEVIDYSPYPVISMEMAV
Test [7] deals with TB427.04.1870. Description: Multitargeted bead mixture competition. The class given is binding. The following applies: free ligand 100 μM, T. brucei lysate.
In test [8] the test system is TB927.8.6760. Description: Multitargeted bead mixture competition. The following applies: free ligand 100 μM, T. brucei lysate. The class given is binding.
In test [9] the test system is T. brucei lysate proteins. The class given is binding, Trypanosoma brucei. The following applies: X016405, bead mixture, free compound 100.0uM, Trypanosoma brucei.
Test [10] deals with HYPOTHETICAL PROTEIN, CONSERVED (TB427.05.3680). Description: Multitargeted bead mixture competition. The class given is binding. The following applies: free ligand 100 μM, T. brucei lysate.
Test [11] concerns ACETYLTRANSFERASE, PUTATIVE (Tb427.08.3310). Description: Multitargeted bead mixture competition. The following applies: free ligand 100 μM, T. brucei lysate. The class given is binding.
The test system of test [12] is SUCCINYL-COA SYNTHETASE ALPHA SUBUNIT, PUTATIVE (Tb427.03.2230). Description: Multitargeted bead mixture competition. The class given is binding. The following applies: free ligand 100 μM, T. brucei lysate.
The test system of test [13] is TB927.7.1340. Description: Multitargeted bead mixture competition. The class given is binding. The following applies: free ligand 100 μM, T. brucei lysate.
The target of test [14] is PTERIDINE REDUCTASE (TB927.8.2210) (Trypanosoma brucei brucei, UniProt O76290). Description: Multitargeted bead mixture competition. The class given is binding, T. brucei. The following applies: multitargeted bead mixture; free ligand 100 μM; T. brucei lysate; TB927.8.2210 PTERIDINE REDUCTASE
Chain of PTERIDINE REDUCTASE (TB927.8.2210) (O76290 entry or part of it): as the sequence (O76290 entry or part of it) above
Test [15] concerns TB09.211.1690. Description: Multitargeted bead mixture competition. The class given is binding. The following applies: free ligand 100 μM, T. brucei lysate.
In test [16] the test system is NGG1 INTERACTING FACTOR 3-LIKE (Tb427tmp.02.5000). The class given is binding. The following applies: multitargeted bead mixture; free ligand 100 μM; T. brucei lysate; Tb427tmp.02.5000.
The test system of test [17] is TB11.03.0290. Description: Multitargeted bead mixture competition. The class given is binding, T. brucei. The following applies: multitargeted bead mixture; free ligand 100 μM; T. brucei lysate; TB11.03.0290.
Test [18] relates to PHOSPHATIDYLINOSITOL-4-PHOSPHATE 5-KINASE, PUTATIV (TB427.10.3890). Description: Multitargeted bead mixture competition. The class given is binding. The following applies: free ligand 100 μM, T. brucei lysate.
The test system of test [19] is BRANCHED-CHAIN AMINO ACID AMINOTRANSFERASE, PUTATI (TB427.02.4590). Description: Multitargeted bead mixture competition. The following applies: free ligand 100 μM, T. brucei lysate. The class given is binding.
Test [20] deals with PEPTIDYL-PROLYL CIS-TRANS ISOMERASE (CYCLOPHILIN- (TB427TMP.211.1350)). Description: Multitargeted bead mixture competition. The class given is binding. The following applies: free ligand 100 μM, T. brucei lysate.
In test [21] the test system is TB927.8.6460. Description: Multitargeted bead mixture competition. The following applies: multitargeted bead mixture; free ligand 100 μM; T. brucei lysate; TB927.8.6460. The class given is binding, T. brucei.
Test [22] concerns IRON/ASCORBATE OXIDOREDUCTASE FAMILY PROTEIN, PUTA (Tb427.02.6180). Description: Multitargeted bead mixture competition. The class given is binding, T. brucei. The following applies: multitargeted bead mixture; free ligand 100 μM; T. brucei lysate; Tb427.02.6180.
Test [23] concerns HYPOTHETICAL PROTEIN, CONSERVED (Tb427.10.6100). Description: Multitargeted bead mixture competition. The following applies: free ligand 100 μM, T. brucei lysate. The class given is binding.
Test [24] relates to HYPOTHETICAL PROTEIN, CONSERVED (TB427.03.2670). Description: Multitargeted bead mixture competition. The class given is binding. The following applies: free ligand 100 μM, T. brucei lysate.
Test [25] addresses DHFR-TS (Leishmania major, UniProt P07382). Description: biochemical. The following applies: competing free ligand 100 μM; bead = immobilized compound of the row; L. major lysate; read-out: % Inhibition of protein binding to bead, DHFR-TS, L. major.
Test [26] deals with human enzyme (DHCH). Set-up: method as in ref 8 (SI). The following applies: ref 8 (SI); cited from earlier work.
Test [27] addresses leishmania DHCH enzyme. Set-up: method as in ref 10 (SI). The following applies: ref 10 (SI); cited from earlier work.
The target in test [28] is T1, PTR1 (Leishmania major, UniProt Q01782).
T1 sequence (Q01782 1-288): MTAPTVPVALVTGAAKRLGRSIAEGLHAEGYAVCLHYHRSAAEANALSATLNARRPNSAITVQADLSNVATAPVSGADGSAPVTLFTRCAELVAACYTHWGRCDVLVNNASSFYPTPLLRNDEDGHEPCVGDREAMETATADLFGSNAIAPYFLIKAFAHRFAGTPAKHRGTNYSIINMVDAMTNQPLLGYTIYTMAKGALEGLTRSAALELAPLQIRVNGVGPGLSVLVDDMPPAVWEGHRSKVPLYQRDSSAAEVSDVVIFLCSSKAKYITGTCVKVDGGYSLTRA
Description: biochemical. The following applies: competing free ligand 100 μM; bead = immobilized compound of the row; L. major lysate; read-out: % Inhibition of protein binding to bead, PTR-1, L. major.

Test [29] deals with TbTS. The following applies: recombinant protein assay; ref 6 (SI); read-out: Ki, recombinant TbTS; cited from earlier work.
The target of test [30] is T2, MTHFS, the 5-formyl-THF-cyclo-ligase (Homo sapiens, UniProt P49914).
T2 sequence (P49914 1-203): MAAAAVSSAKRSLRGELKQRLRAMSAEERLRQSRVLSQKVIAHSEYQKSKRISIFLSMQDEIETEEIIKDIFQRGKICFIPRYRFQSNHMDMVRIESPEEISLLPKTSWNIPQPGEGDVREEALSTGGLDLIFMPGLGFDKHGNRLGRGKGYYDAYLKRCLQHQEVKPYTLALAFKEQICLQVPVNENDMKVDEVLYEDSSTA
Description: Multitargeted bead mixture competition, HeLa cell extract. The following applies: bead mixture; HeLa cell extract. The class given is binding.

Chain of DHFR-TS (Trypanosoma brucei brucei, UniProt Q27783) (Q27783 whole entry): as the sequence (Q27783 whole entry) above
Chain of DHFR-TS (Leishmania major, UniProt P07382) (P07382 whole entry): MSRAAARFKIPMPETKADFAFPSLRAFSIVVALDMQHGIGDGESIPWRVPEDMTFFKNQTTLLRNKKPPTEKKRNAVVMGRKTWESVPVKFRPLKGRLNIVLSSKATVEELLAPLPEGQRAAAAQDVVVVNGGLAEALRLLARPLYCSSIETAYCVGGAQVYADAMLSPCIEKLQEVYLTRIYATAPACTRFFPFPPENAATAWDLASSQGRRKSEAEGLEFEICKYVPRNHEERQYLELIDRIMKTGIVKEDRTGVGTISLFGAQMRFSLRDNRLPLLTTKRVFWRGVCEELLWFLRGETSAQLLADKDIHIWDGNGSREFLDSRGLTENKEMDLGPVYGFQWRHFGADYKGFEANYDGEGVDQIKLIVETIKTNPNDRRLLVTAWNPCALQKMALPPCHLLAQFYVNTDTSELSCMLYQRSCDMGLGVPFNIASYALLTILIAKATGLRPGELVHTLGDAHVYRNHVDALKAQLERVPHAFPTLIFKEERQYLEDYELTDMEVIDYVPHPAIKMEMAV

For orientation: inhibition means the share of the control response that was lost under treatment. Take `NCCOCCOc1ccc(Cc2cnc(N)nc2N)cc1` [compound 13]: the inhibition at 100 µM came out at 75% in test [1] and 51% in test [2].

On to `Nc1nc(O)c2c(CCc3ccccc3)c[nH]c2n1` [compound 5], for which the “percentage of competition from bead binding” value (from here on “percentage of competition”) in [3] was 15%; in test [4], 60%; in test [5], 49%; in [6], 5%; in test [7] it was 50%; in [8], -71%. Besides, the “percentage of competition” value in test [10] is 70%; in test [11] it was 61%; in test [12] it was 51%; in test [13], -41%; in test [14] it was 93%; in test [15] it was -34%. Moreover, the “percentage of competition” value in test [16] was 6%; in test [17], 61%; in test [18], 49%; in [19] it was -22%; in test [20], -24%; in [21] it was 65%. Also, the entries for the “percentage of competition” value in [22], in test [23] and in [24] were 80%, 77% and 54%, respectively. The “abundance relative to vehicle” value came to 0.89 in [9] (protein TB427.02.1850), 1.04 in [9] (protein TB427.06.4760), 1.03 in test [9] (protein TB427.07.3620) and 0.84 in [9] (protein TB427.08.1880).

For the molecule `Nc1nc(=O)c2nc(CNc3ccc(C(=O)N[C@@H](CCC(=O)O)C(=O)O)cc3)cnc2[nH]1` [Folic acid], the inhibition at 100 µM in test [1] came out at 77%; in test [2], 92%; in test [25] it was 85%.

As to `NCCCCCOc1ccc(Cc2cnc(N)nc2N)cc1` [compound 10], the inhibition at 100 µM in test [1] is 84%; in test [2], 77%.

The term Ki denotes a measure of affinity in units of concentration, obtained from inhibition or displacement. For the molecule `Nc1nc2c(c(=O)[nH]1)N1C(=O)N(c3ccc(C(=O)NC(CCC(=O)O)C(=O)O)cc3)CC1CN2` (stereo not drawn) [compound 4], the Ki in [26] was 18 ± 5 nM; in test [27] it was 105 ± 2 nM.

`NCCOCCOc1cccc(Cc2cnc(N)nc2N)c1` [compound 12]: the inhibition at 100 µM in test [1] is 79%; in test [2], 51%.

Take `Cc1ccc2nc(N)[nH]c(=O)c2c1Sc1ccncc1` [NTX, nolatrexed]: the inhibition at 100 µM in test [28] and in test [25] was less than 50% in each case. For the same molecule, the “percentage of competition” value is recorded as 18% in test [3]; 11% in [4]; 34% in test [5]; -5% in test [6]; 52% in [7]; 8% in test [8]. For the same molecule, the “percentage of competition” value in [10] is listed as 38%; in test [11], 29%; in test [12], 27%; in test [13], 11%; in [14], 16%; in [15], -7%. Moreover, the “percentage of competition” value in [16] was 87%; in test [17], 77%; in test [18], 16%; in [19] it was 9%; in test [20] it was 1%; in [21], 68%. The “percentage of competition” value in [22] was 52%; in test [23] it was 33%; in test [24], 11%. The Ki in [29] is 39.4 nM. In test [30], the “binding to MTHFS” value was “bound MTHFS”.

As for `NCCCCCOc1cccc(Cc2cnc(N)nc2N)c1` [compound 11], the values for the inhibition at 100 µM in test [1] and in test [2] were 87% and 56%, respectively.
